Experimental data taken from article PMC11514582, “Leveraging the Aggregated Protein Dye YAT2150 for Malaria Chemotherapy” (Pharmaceutics, 2024).
In brackets after ≈: the same amount, converted by molar mass. Like-named read-outs stand apart in the source and are kept apart here.

Key:
[1] = test system: protein aggregation in P. falciparum cultures; test: ThT protein aggregation assay in P. falciparum cultures; format: cell-based, Plasmodium falciparum; settings: treated for 4 h at the IC50
Procedure: After this incubation, 9 mL of culture was removed and subjected to a second Percoll treatment to pellet the parasitized red blood cells, which were resuspended in 50 μL of lysis buffer, consisting of 4.5 mg/mL NaCl in H2O supplemented with 1× cOmplete^TM protease inhibitor cocktail (Roche, Basel, Switzerland), and treated as described elsewhere [13]. […] Only those samples with parasitemias between 30 and 70% relative to the control were considered for ThT analysis.

[2] = test system: P. falciparum asexual blood stages; test: microbe, parasite or virus in culture; settings: Plasmodium falciparum
Procedure: The asexual blood stages of P. falciparum parasites of the 3D7 strain (Malaria Research and Reference Reagent Resource Center, Manassas, VA, USA) were cultured in group B human RBCs at 3% hematocrit, which was kept throughout the experiments, and incubated in RPMIc. Parasites were maintained at 37 °C under an atmosphere of 5% O2, 5% CO2, and 90% N2. […] The parasites were then cultured under standard conditions for 48 h, allowing for a complete replication cycle. After the incubation period, 3 µL of culture from each well was mixed with 197 µL of PBS containing 0.1 µM Syto 11 (Thermo Fisher Scientific, Inc.) to obtain a final concentration of 1 × 10^6 to 10 × 10^6 cells/mL. Parasitemia levels were measured using an LSRFortessa flow cytometer equipped with a standard configuration of four lasers and 20 parameters. Single-cell populations were identified on a forward-side scatter plot. […] The inhibition data were then transformed using sigmoidal fitting to determine IC50.
For stage arrest assays, P. falciparum cultures were tightly synchronized in schizont stages by repeated treatment with 70% Percoll (GE Healthcare, Chicago, IL, USA) [26, 27]. […] Pictures were taken with a Nikon Eclipse 50i microscope equipped with a DS-Fi1 camera (Nikon Corporation, Tokyo, Japan).

[3] = test system: P. falciparum asexual blood stages; settings: cited from earlier work
CYP2C9 = CYP2C9 (Homo sapiens, UniProt P11712); test: in vitro
Sequence of CYP2C9 (P11712 whole entry): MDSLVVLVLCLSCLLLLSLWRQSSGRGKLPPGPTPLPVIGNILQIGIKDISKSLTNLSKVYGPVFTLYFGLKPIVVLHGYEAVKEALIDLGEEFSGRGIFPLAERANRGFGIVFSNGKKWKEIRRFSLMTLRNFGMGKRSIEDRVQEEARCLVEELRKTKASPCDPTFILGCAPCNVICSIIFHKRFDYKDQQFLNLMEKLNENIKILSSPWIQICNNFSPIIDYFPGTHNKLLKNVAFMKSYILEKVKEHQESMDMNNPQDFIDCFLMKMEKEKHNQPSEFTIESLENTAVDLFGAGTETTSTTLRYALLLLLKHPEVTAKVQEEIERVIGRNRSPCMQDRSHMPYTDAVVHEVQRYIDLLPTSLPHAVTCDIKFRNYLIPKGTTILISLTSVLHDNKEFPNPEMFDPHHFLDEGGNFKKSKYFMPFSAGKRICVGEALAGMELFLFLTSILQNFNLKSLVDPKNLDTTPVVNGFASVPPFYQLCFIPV

[4] = cited from earlier work
[5] = Bidirectional permeability in Caco-2 cell monolayer; settings: human
CYP2D6 = CYP2D6 (Homo sapiens, UniProt P10635); test: Cytochrome inhibition assay CYP2D6
Sequence of CYP2D6 (P10635 whole entry): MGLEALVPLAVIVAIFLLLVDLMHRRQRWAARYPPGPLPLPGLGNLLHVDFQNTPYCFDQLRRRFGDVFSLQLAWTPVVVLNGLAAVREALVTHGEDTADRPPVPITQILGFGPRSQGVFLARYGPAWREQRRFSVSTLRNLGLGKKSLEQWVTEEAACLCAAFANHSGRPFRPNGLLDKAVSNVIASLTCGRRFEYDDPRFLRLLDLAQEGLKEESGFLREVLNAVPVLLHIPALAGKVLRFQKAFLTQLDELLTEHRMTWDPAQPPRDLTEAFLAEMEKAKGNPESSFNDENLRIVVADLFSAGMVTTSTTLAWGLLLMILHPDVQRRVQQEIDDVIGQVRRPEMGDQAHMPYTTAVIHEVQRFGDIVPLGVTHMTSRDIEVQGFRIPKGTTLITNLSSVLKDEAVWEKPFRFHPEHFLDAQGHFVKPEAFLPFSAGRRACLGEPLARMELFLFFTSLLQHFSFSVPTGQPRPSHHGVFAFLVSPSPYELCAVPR

[6] = test system: P. falciparum gametocytes; settings: cited from earlier work
[7] = test system: liver stages of P. berghei in Huh7; settings: read-out: IC50 against liver stages of P. berghei; cited from earlier work
[8] = Human plasma protein binding (Rapid Equilibrium Dialysis); format: in vitro ADME; settings: pH 7.2, RED, 4 h at 37 °C
Procedure: The assay was carried out by Rapid Equilibrium Dialysis (RED). The compounds were dissolved at 5 μM in human plasma and added to the corresponding insert of the RED device (Thermo Fisher Scientific, Inc., Waltham, MA, USA), and dialysis was performed for 4 h at 37 °C in […], 25 mM tris-HCl, pH 7.2 (Tris BupH^TM, Thermo Fisher Scientific, Inc.). Then, 50-µL aliquots from each chamber were transferred to empty vials, to which 50 µL of dialysis buffer was added. As control, 50 µL of plasma was mixed with 50 µL of buffer. Three hundred µL of acetonitrile was added to all the samples, which were analyzed by ultra-performance liquid chromatography with tandem mass spectrometry as previously described.

[9] = test system: P. berghei ookinete development; test: Ex vivo gametocyte-to-ookinete transition inhibition (ookinete maturation) assay; format: cell-based, Plasmodium berghei; settings: up to a concentration of 2 µM
Procedure: Eight days before ookinete production, 100 µL of a red blood cell (RBC) pellet containing the Plasmodium berghei circumsporozoite protein and thrombospondin-related adhesive protein (TRAP)-related protein (CTRP)-green fluorescent protein (GFP) strain (CTRP-GFP, which expresses GFP when reaching ookinete stage, kindly provided by Inga Siden-Kiamos) in cryopreservation solution (RBC pellet:RPMI:30% glycerol in water, 1:1:2) was administered intraperitoneally (i.p.) to a BALB/c mouse (Charles River Laboratories, Wilmington, MA, USA). […] The effect of drugs on gametocyte-to-ookinete conversion was assessed in three independent replicas by plating 120 µL of each culture treated with serial dilutions of the compounds in 96-well plates and incubated for 24 h at 21 °C with orbital shaking at 50 rpm (modified from). Finally, samples diluted 1:100 in PBS were analyzed in an LSRFortessa flow cytometer (BD Biosciences, Franklin Lakes, NJ, USA) set up with the 4 lasers, 20 parameters standard configuration. The GFP positive cell population was counted (λexcitation: 488 nm; λemission: 525/40 nm) using BD FACSDiva software 6.1.3 (BD Biosciences) for data collection and Flowing Software 2.5.1 (Turku Center for Biotechnology, Turku, Finland) for analysis.

HUVEC = settings: cited from earlier work
[10] = test system: MCF7 human breast adenocarcinoma; settings: cited from earlier work
[11] = human, hepatocytes
CYP1A2 = target: T1, CYP1A2 (Homo sapiens, UniProt P05177); test: in vitro
T1 sequence (P05177 1-516): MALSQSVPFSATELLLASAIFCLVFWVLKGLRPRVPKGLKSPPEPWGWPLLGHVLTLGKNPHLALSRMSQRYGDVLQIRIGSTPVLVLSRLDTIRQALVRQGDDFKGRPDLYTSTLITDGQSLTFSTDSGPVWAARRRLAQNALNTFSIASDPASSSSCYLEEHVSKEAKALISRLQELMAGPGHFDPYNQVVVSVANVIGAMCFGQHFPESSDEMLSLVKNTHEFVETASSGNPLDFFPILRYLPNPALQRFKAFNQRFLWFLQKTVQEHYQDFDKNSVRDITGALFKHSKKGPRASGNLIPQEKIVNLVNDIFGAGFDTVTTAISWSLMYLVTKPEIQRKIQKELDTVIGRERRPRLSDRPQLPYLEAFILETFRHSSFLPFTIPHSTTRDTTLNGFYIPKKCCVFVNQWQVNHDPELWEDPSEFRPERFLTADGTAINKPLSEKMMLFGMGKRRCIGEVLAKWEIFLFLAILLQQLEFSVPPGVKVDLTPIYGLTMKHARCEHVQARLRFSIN

[12] = 3D7, read-out: in vitro IC50 as determined in our experimental setting

For O=C1C(O)=C([C@H]2CC[C@H](c3ccc(Cl)cc3)CC2)C(=O)c2ccccc21 [atovaquone], the “effect on protein aggregation (ThT fluorescence)” value (“effect on protein aggregation” below) [1] was “did not have an observable effect” and the IC50 [2, 12] was 1 nM.

In the case of CCN(CC)CCCC(C)Nc1ccnc2cc(Cl)ccc12 (stereo not shown) [chloroquine], the “effect on protein aggregation” value [1] is given as “reduce protein aggregation”, the IC50 ([3]; Table S2, ref 10 (supplement list), read-out: IC50 P. falciparum (3D7) blood stages, reference compound) is given as 29.7 ± 6 nM and the IC50 ([2]; read-out: in vitro IC50 as determined in our experimental setting) is given as 7 nM.

In the case of Nc1ccc(S(=O)(=O)Nc2ccnn2-c2ccccc2)cc1 [Sulfaphenazole], the inhibition at 0.37 µM (CYP2C9) is reported as 43%.

In the case of COc1cc2c(c(OC)c1OC)-c1ccc(OC)c(=O)cc1[C@@H](NC(C)=O)CC2 [Colchicine], the “Papp AB reported” value ([4]; ref 24 (supplement list)) is given as 1.3 ×10⁻⁶ cm/s, the “Papp BA reported” value ([4]; ref 24 (supplement list)) is given as 5.4 ×10⁻⁶ cm/s and the Papp ([5]; Caco-2) is given as 0.26 ± 0.02 ×10⁻⁶ cm/s. For the same compound, the Papp B→A ([5]; Caco-2) was 8.98 ± 0.47 ×10⁻⁶ cm/s, the efflux ratio ([5]; Caco-2, Transport through Caco-2 Efflux ratio, reference compounds, tested in parallel) was 35.3 ± 3 and the efflux ratio ([5]; Caco-2, efflux ratios of reference compounds, as quoted in text from Supplementary Table S2) was 33.

For C=C[C@H]1C[N@@]2CC[C@H]1C[C@@H]2[C@@H](O)c1ccnc2ccc(OC)cc12 [Quinidine], the inhibition at 0.0073 µM (CYP2D6) was 69%.

In the case of COc1cc(NC(C)CCCN)c2ncccc2c1 (stereo not shown) [primaquine], the “effect on protein aggregation” value [1] is listed as “reduce protein aggregation”, the IC50 ([6]; Table S2, ref 10 (supplement list), read-out: IC50 P. falciparum early/stage V gametocytes, reference compound) is listed as 18900 ± 2000 nM and the IC50 ([6]; stage IV-V gametocytes, read-out: IC50 for P. falciparum gametocytes (primaquine)) is listed as about 20000 nM. The IC50 [7] was about 10000 nM and the IC50 [2, 12] was 3000 nM.

With O=C1NC(=O)C(c2ccccc2)(c2ccccc2)N1 [Phenytoin] the fraction unbound at 4 h, 5 μM [8] was 0.167.

In the case of C[C@@H]1CC[C@H]2[C@@H](C)C(=O)O[C@@H]3O[C@@]4(C)CC[C@@H]1[C@]32OO4 [artemisinin], the “effect on protein aggregation” value [1] is reported as “did not have an observable effect” and the IC50 [2, 12] is reported as 10.8 nM.

CC(=O)[C@H]1CC[C@H]2[C@@H]3CCC4=CC(=O)CC[C@]4(C)[C@H]3CC[C@]12C [Progesterone] showed a solubility (Solubility in PBS) of 8 µM (≈ 2.52 µg/mL).

For C[C@]12CC[C@@H]3c4ccc(OS(=O)(=O)O)cc4CC[C@H]3[C@@H]1CCC2=O [Estrone-3-sulfate], the “Transport through Caco-2 AB (Papp), reference compounds” value was 0.44 ± 0.03 ×10⁻⁶ cm/s, the “Transport through Caco-2 Efflux ratio, reference compounds” value was 26.5±3.5 and the “Transport through Caco-2 BA (Papp), reference compounds” value (human) was 11 ± 0.94 ×10⁻⁶ cm/s. The “Papp AB reported” value ([4]; not told) was 2.7 ×10⁻⁶ cm/s and the “Papp BA reported” value ([4]; not told) was 17.5 ×10⁻⁶ cm/s.

In the case of COc1cc2c(cc1OC)C(=O)C(CC1CCN(CCCNc3c4c(nc5cc(Cl)ccc35)CCCC4)CC1)C2 (stereo not shown) [DONE3TCl], the “effect on ookinete development” value [9] is given as “much less significant effect” and the IC50 ([3]; read-out: IC50 in in vitro P. falciparum asexual blood stage cultures) is given as about 80 nM.

For N.N.[Cl][Pt][Cl] [Cisplatin], the CC50 (HUVEC) is listed as 2350 ± 40 nM and the CC50 [10] is listed as 16700 nM.

With C[C@]12CC[C@H]3[C@@H](CCC4=CC(=O)CC[C@@]43C)[C@@H]1CC[C@@H]2O [Testosterone] the half-life (Microsomal stability; human, microsomes) was 15.3 min, the microsomal CLint (Microsomal stability; human, microsomes) was 55.6 µL/min/mg and the “Microsomal stability (remaining after 1 h), reference compound” value (Microsomal stability; tested in parallel) was 6.5%.

In the case of COc1cc2nc(N3CCN(C(=O)c4ccco4)CC3)nc(N)c2cc1OC [Prazosin], the “Hepatocyte stability (remaining after 2 h), reference compounds” value [11] is reported as 70.2% and the solubility (physchem) is reported as 63.8 µM (≈ 24.5 µg/mL).

Cc1nc2c([nH]1)c(=O)n(C)c(=O)n2Cc1ccco1 [Furafylline] gave an inhibition at 2 µM (CYP1A2) of 61%.
